Test results as given in ChEMBL document CHEMBL1201862, “PubChem BioAssay data set” (2004).
Active and inactive are the calls of the source.

Tests used:
[1] = target: Lysosomal acid glucosylceramidase (Homo sapiens, UniProt P04062); experiment: Dose response cell-based high throughput screening assay to identify enhancers of beta-glucosidase activity. [Related pubchem assays: 784 ]; assay type: functional
[2] = target: G2/mitotic-specific cyclin-B1 (Homo sapiens, UniProt P14635); experiment: Counterscreen assay for inhibitors of Wee1 degradation: dose response cell-based assay to identify inhibitors of cyclin B degradation. [Related pubchem assays: 1410, 1321 ]; assay type: functional
[3] = target: Wee1-like protein kinase (Homo sapiens, UniProt P30291); experiment: Dose Response Cell-based Assay for Inhibitors of Wee1 Degradation. [Related pubchem assays: 1410, 1321 ]; assay type: functional
[4] = Luminescence Cell-Based Dose-Confimation HTS to Identify Inhibitors of 5'UTR Stem-Loop Driven Alpha-Synuclein mRNA Translation in H4 Neuroglioblastoma Cells. [Related pubchem assays: 1827 (Project Summary), 1813 (Primary HTS)]; assay type: functional
[5] = target: Sphingosine 1-phosphate receptor 2 (Homo sapiens, UniProt O95136); experiment: Dose Response Cell Based Assay for Agonists of the S1P2 Receptor of Purchased Analogues. [Related pubchem assays: 729, 843, 854, 736 ]; assay type: functional
[6] = system: HeLa; experiment: Cytotoxicity counterscreen assay for transcriptional activators of heat shock protein 70 (Hsp70). [Related pubchem assays: 1203, 1252 ]; assay type: functional; conditions: Homo sapiens;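 also: cells exposed to compound for 16 hours before readout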
[7] = target: NADPH oxidase 1 (Homo sapiens, UniProt Q9Y5S8); assay type: functional, cell-based;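 also: Cell-based assay with luminescence read-out, IC50 derived from inhibitor dose-response curves; intracellular ROS from endogenous NOX1 in intact HT29 colon cancer cells; potency of inhibitors that lower the ROS luminescence signal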
[8] = target: Serine/threonine-protein phosphatase (Homo sapiens, UniProt Q9BPW0); experiment: Counterscreen for inhibitors of PP1: fluorescence-based biochemical high throughput dose response assay to identify inhibitors of Protein Phosphatase 5 (PP5). [Related pubchem assays: 2034 (Summary (PP5 inhibitors)), 1987 (PP5 inhibitors in singlate), 2235 (PP1 inhibitors in singlate)]
[9] = Glucagon-like peptide 1 release potency, NCI-H716 cell line, dose-response, half-maximal inhibitory concentration (AID 1117344); assay type: functional, cell-based
[10] = HeLa 2N DNA content increase, dose response, cell-based, IC50 (AID 1117349); assay type: functional
[11] = half-maximal inhibitory concentration for glucagon-like peptide-1 release, STC-1 cell line, dose-response (AID 1117345); assay type: functional, cell-based
[12] = HeLa 4N DNA content increase, dose response, cell-based, IC50 (AID 1117351); assay type: functional
[13] = target: NS3 (Hepatitis C virus, UniProt A3EZJ3); experiment: PubChem AID 2173; parameters: species or system Hepacivirus hominis
Sequence of NS3 (A3EZJ3 whole entry): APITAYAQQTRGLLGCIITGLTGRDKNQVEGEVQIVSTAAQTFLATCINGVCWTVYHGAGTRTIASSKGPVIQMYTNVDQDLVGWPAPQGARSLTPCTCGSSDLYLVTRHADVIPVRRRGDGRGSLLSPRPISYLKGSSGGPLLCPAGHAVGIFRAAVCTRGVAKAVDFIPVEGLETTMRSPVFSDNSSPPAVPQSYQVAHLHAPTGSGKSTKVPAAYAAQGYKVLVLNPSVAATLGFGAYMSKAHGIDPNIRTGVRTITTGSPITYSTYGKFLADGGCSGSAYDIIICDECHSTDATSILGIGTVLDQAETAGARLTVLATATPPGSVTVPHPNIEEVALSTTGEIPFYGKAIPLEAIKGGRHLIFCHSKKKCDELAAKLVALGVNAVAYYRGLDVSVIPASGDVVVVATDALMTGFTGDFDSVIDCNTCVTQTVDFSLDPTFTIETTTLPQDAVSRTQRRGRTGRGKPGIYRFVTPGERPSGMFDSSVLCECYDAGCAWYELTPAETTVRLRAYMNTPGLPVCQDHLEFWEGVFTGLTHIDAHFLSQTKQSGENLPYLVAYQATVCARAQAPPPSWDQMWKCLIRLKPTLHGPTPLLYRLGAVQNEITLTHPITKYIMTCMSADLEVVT

Sequence of Wee1-like protein kinase (P30291 whole entry): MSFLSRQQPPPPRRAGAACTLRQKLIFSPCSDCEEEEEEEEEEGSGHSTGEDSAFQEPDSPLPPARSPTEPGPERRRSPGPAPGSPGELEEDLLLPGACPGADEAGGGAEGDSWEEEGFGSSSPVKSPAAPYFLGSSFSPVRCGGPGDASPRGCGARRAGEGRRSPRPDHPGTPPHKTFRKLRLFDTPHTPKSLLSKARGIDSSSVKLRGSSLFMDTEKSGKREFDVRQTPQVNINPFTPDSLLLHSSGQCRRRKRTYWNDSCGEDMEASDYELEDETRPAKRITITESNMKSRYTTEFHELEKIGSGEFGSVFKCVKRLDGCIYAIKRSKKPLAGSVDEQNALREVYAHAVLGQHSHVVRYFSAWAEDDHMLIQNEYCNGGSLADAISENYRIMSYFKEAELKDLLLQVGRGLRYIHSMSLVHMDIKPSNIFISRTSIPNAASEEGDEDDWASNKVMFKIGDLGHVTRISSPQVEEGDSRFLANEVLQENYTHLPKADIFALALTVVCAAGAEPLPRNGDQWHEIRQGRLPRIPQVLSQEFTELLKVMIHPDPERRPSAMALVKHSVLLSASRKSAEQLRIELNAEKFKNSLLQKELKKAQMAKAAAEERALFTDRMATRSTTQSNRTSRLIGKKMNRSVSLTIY
Sequence of Serine/threonine-protein phosphatase (Q9BPW0 whole entry): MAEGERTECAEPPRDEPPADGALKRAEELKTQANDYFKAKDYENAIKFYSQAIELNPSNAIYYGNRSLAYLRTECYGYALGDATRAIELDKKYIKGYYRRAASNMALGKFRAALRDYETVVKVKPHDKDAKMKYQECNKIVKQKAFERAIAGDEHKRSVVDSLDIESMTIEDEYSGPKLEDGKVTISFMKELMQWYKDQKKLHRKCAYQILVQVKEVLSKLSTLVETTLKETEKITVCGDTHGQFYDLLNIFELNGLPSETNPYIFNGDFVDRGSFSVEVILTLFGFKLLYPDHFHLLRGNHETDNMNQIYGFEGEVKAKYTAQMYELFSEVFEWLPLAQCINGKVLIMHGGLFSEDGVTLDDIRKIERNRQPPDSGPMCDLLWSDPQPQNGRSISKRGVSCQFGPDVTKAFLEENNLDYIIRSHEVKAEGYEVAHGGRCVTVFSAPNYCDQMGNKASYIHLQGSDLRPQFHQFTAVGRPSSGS
Sequence of Lysosomal acid glucosylceramidase (P04062 whole entry): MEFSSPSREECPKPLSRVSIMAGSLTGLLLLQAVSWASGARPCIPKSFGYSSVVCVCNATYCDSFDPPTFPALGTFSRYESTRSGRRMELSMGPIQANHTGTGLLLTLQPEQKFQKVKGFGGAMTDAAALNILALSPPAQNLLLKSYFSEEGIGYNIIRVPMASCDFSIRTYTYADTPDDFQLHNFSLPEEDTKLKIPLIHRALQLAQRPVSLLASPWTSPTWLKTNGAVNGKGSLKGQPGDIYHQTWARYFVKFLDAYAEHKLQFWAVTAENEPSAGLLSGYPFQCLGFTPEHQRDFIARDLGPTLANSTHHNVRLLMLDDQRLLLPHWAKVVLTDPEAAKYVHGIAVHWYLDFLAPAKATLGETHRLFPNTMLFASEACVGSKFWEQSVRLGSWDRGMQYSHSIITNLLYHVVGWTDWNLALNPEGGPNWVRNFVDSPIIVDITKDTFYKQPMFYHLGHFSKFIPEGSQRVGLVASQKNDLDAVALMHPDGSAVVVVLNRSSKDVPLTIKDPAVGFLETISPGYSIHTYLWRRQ
Sequence of G2/mitotic-specific cyclin-B1 (P14635 whole entry): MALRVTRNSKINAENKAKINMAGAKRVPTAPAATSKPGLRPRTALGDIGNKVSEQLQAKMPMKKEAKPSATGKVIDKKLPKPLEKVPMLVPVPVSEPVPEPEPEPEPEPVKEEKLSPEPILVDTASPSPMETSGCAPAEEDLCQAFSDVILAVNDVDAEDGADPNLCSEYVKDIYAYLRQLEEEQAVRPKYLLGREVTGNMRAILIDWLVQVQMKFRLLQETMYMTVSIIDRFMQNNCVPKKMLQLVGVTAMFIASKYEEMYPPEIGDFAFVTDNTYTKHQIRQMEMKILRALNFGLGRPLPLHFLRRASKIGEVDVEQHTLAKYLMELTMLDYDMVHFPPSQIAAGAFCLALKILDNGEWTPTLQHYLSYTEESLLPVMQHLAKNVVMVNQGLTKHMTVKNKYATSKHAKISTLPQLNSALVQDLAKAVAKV
Sequence of NADPH oxidase 1 (Q9Y5S8 whole entry): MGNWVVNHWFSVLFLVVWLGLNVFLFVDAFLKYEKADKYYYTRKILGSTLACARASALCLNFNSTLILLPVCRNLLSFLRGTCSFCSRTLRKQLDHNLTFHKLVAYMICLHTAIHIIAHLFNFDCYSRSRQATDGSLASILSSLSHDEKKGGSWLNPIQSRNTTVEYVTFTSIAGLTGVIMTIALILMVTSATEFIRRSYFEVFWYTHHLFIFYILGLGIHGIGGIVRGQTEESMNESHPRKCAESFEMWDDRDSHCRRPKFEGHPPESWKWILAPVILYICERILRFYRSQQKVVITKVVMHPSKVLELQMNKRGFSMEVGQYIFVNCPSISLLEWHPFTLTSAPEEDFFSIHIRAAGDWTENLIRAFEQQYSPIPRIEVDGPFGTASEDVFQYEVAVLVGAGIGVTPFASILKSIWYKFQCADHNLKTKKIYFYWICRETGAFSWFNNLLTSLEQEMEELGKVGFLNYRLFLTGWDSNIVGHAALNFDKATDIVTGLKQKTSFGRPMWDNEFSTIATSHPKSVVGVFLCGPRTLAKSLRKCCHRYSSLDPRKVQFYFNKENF
Sequence of Sphingosine 1-phosphate receptor 2 (O95136 whole entry): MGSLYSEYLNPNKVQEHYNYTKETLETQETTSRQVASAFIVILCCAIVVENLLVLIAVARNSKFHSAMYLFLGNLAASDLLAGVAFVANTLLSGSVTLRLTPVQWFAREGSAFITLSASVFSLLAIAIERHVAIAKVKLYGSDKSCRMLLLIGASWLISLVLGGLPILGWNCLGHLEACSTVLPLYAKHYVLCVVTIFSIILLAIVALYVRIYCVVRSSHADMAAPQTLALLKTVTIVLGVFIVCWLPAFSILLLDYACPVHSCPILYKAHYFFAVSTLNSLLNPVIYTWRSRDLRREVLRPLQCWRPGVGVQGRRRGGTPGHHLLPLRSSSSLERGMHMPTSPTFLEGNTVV

For `COCCCNC(=O)Cn1cc(C(=O)C2CC2)c2ccccc21`, the EC50 [1] was > 50 µM (not active).
For `CCN(CC)c1ccc(/C=N/NC(=O)c2cnccn2)cc1`, the EC50 [2] was > 49.7 µM (not active) and the EC50 [3] was > 49.7 µM (not active).
For `COc1ccc(C)cc1-n1nnnc1SCc1nc(N)nc(N(C)C)n1`, the EC50 [4] was 20.5 µM (active).
In the case of `CCOC(=O)c1cc(C)n(Cc2ccccc2)c1C`, the EC50 [5] is reported as > 30 µM (not active).
For `N#Cc1ccc(NC(=O)c2nc(-c3ccccc3)n(-c3ccccc3)n2)cc1`, the CC50 [6] was > 99 µM (not active).
For `COc1ccc(-c2nc(-c3ccccc3)c(-c3ccccc3)[nH]2)cc1OC`, the IC50 [7] was > 17 µM (not active).
With `C[C@@]12C(=O)OC(=O)[C@]1(C)C1CCC2O1` the IC50 [8] was 0.239 µM (active), the IC50 [9] was 6.68 µM (inactive) and the IC50 [10] was > 10 µM (inactive). For the same compound, the IC50 [11] was 13.7 µM (inactive) and the IC50 [12] was > 10 µM (inactive).
With `COc1ccc(C2C(C(=O)c3ccc4c(c3)OCCO4)=C(O)C(=O)N2c2nc(C)c(C(C)=O)s2)cc1` (stereo not drawn) the IC50 [13] was 5.13 µM (active).
